Measurements published in publication PMC2248166, “Quantitative peptide binding motifs for 19 human and mouse MHC class I molecules derived using positional scanning combinatorial peptide libraries” (Immunome Research, 2008).

Tests used:
Assay type in all cases: binding
HLA A*3001 = HLA A*3001 (Homo sapiens, UniProt P04439, D140H/D185E/E176W/F33S/G80R/H175R/K168Q/R138E/R41S); assay: biochemical
HLA A*3201 = HLA A*3201 (Homo sapiens, UniProt P04439, A270S/D101S/D185E/E176V/E277Q/F133L/G103R/G107R/G231S/H175R/I121M/I218V/I322F/K168Q/L105A/L300P/L318F/M331R/P208A/P217A/Q94H/R106L/R138Q/S129P/T104I/T323A/T345S/V100E/V321M/V358M); assay: biochemical
HLA A*6802 = HLA A*6802 (Homo sapiens, UniProt P04439, A269V/D140Y/D185E/E176V/E277Q/E87N/F33Y/G231S/I121R/I166T/I218V/L180W/L300P/L318F/N151K/P208A/P217A/Q86R/R138H/R169H/S129P/T345S/V36M)
HLA B*0801 = HLA B*0801 (Homo sapiens, UniProt P01889, A93T/A95T/D138N/E176V/E187T/K202T/Q94N/R180D/S35A/V36M/Y33D/Y91F); assay: biochemical
HLA B*1501 = HLA B*1501 (Homo sapiens, UniProt P01889, A329T/A93T/A95T/C349S/D201E/D98Y/E187L/E204Q/E69M/E70A/K202T/N87E/Q94N/R155S/R180W/S121R/S35A/S48A/V306I/V36M/Y140S/Y91S); assay: biochemical
HLA B*1503 = HLA B*1503 (Homo sapiens, UniProt P01889, A329T/A93T/A95T/C349S/D201E/D98Y/E187L/E204Q/K202T/N87E/Q94N/R155S/R180L/S121R/S35A/V306I/V36M/Y140S/Y91S); assay: biochemical
HLA B*3501 = HLA B*3501 (Homo sapiens, UniProt P01889, A329T/A93T/A95T/C349S/D201E/D98Y/E176V/E187L/E204Q/E69T/I218V/K202T/L119I/Q94N/R155S/R180L/S121R/S35A/S48A/T118I/V127L/V306I/V36M/Y140S/Y91F)
HLA B*5101 = HLA B*5101 (Homo sapiens, UniProt P01889, A329T/A93T/A95T/C349S/D138N/D201E/D98Y/E187L/E204Q/E69T/G107R/I218V/K202T/L105A/L119W/N104I/Q94N/R106L/R155S/R180L/S101N/S121T/S35A/S48A/V306I/V36M/Y195H/Y91F)
HLA B*5301 = HLA B*5301 (Homo sapiens, UniProt P01889, A329T/A93T/A95T/C349S/D201E/D98Y/E176V/E187L/E204Q/E69T/G107R/I218V/K202T/L105A/L119I/N104I/Q94N/R106L/R155S/R180L/S101N/S121R/S35A/S48A/T118I/V127L/V306I/V36M/Y140S/Y91F)
HLA B*5401 = HLA B*5401 (Homo sapiens, UniProt P01889, A329T/C349S/D138N/D201E/E176V/E187T/E204Q/E69G/I76V/K202T/L119W/R155S/R180L/S121T/S35A/S48A/V127L/V306I/V36M/Y140L)
HLA B*5801 = HLA B*5801 (Homo sapiens, UniProt P01889, A329T/C349S/D201E/D98Y/E176V/E187L/E204Q/E69T/G107R/I218V/I90N/K202T/L105A/L119I/N104I/N87E/Q89R/Q94S/R106L/R155S/R180L/R86G/S101N/S121R/S35A/S48A/T118I/V127L/V306I/V36M/Y140S/Y91M)
HLA B*5802 = HLA B*5802 (Homo sapiens, UniProt P01889, A329T/C349S/D201E/D98Y/E176V/E187L/E204Q/E69T/G107R/I218V/I90N/K202T/L105A/N104I/N87E/Q89R/Q94S/R106L/R155S/R180L/R86G/S101N/S121W/S35A/S48A/V127L/V306I/V36M/Y140S/Y91M)
H-2 D^b = H-2 D^b (Mus musculus, UniProt P01899)
H-2 D^d = H-2 D^d (Mus musculus, UniProt P01900)
H-2 K^d = H-2 K^d (Mus musculus, UniProt P01902)
H-2 K^k = H-2 K^k (Mus musculus, UniProt P04223)
Sequence of H-2 K^k (P01887 21-119): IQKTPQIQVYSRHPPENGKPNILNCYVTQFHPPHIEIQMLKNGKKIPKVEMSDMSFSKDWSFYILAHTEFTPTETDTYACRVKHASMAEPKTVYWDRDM
Sequence of H-2 K^k (P04223 22-369): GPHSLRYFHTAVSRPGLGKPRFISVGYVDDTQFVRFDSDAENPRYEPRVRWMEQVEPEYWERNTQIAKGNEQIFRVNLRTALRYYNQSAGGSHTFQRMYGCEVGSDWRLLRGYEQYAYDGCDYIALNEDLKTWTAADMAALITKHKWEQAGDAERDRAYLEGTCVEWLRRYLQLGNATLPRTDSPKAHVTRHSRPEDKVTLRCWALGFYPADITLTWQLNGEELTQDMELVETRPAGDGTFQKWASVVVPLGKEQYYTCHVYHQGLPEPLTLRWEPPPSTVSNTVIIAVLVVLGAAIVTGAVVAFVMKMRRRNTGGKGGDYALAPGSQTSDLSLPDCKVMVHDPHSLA

Sequence of H-2 D^d (P01900 whole entry, looked up): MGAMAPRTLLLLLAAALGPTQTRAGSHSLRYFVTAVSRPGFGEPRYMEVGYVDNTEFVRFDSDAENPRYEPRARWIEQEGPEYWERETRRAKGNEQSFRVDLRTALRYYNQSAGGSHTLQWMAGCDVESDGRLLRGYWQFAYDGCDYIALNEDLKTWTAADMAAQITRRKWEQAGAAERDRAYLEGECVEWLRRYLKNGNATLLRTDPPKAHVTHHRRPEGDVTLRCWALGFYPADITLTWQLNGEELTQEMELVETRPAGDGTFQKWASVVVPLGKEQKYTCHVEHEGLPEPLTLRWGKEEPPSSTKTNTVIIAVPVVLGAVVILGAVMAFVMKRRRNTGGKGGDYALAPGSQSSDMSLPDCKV
Sequence of H-2 D^b (P01887 21-119): as the sequence (P01887 21-119) above
Sequence of H-2 D^b (P01899 25-362): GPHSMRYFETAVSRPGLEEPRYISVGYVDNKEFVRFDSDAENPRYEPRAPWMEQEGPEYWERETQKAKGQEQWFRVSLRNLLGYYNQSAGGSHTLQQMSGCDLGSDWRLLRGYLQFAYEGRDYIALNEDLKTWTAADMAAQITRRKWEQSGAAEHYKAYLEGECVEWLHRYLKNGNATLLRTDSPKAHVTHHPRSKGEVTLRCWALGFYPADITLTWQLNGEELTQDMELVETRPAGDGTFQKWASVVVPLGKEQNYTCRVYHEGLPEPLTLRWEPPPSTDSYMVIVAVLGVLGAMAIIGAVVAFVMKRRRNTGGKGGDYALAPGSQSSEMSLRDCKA
Sequence of H-2 K^d (P01887 21-119): as the sequence (P01887 21-119) above
Sequence of H-2 K^d (P01902 22-368): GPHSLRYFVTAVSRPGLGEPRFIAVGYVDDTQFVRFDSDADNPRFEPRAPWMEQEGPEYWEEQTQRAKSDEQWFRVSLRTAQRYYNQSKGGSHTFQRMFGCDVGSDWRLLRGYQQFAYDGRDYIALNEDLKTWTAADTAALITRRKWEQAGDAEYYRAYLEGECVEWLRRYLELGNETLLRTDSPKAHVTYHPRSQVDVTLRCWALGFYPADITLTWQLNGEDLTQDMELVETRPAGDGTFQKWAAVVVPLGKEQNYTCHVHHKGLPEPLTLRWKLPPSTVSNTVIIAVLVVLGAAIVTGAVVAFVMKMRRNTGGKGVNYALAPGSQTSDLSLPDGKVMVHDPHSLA

Sequence	Normalized average relative binding affinity(ARB) (HLA A*3001)	Normalized average relative binding affinity(ARB) (HLA A*3201)	Normalized average relative binding affinity(ARB) (HLA A*6802)	Normalized average relative binding affinity(ARB) (HLA B*0801)	Normalized average relative binding affinity(ARB) (HLA B*1501)	Normalized average relative binding affinity(ARB) (HLA B*1503)	Normalized average relative binding affinity(ARB) (HLA B*3501)	Normalized average relative binding affinity(ARB) (HLA B*5101)	Normalized average relative binding affinity(ARB) (HLA B*5301)	Normalized average relative binding affinity(ARB) (HLA B*5401)	Normalized average relative binding affinity(ARB) (HLA B*5801)	Normalized average relative binding affinity(ARB) (HLA B*5802)	Normalized average relative binding affinity(ARB) (H-2 D^b)	Normalized average relative binding affinity(ARB) (H-2 D^d)	Normalized average relative binding affinity(ARB) (H-2 K^d)	Normalized average relative binding affinity(ARB) (H-2 K^k)
XXXXXNXXX [3064.0112]	0.13	0.73	0.45	0.039	0.26	0.0067	0.16	0.40	0.13	0.29	0.027	1.0	0.56	0.39	0.22	0.32
XXXKXXXXX [3064.0069]	0.32	0.39	0.095	0.52	0.43	0.30	0.097	0.90	0.12	0.42	0.44	0.55	0.43	0.39	0.23	0.26
XXXXXXGXX [3064.0126]	0.044	0.051	0.071	0.17	0.52	0.12	0.12	0.33	0.058	0.073	0.031	0.024	0.45	0.031	0.28	0.34
XXXSXXXXX [3064.0076]	0.76	0.26	1.0	0.48	1.0	0.78	0.090	0.92	0.44	0.14	0.74	1.0	0.83	0.58	0.28	0.28
